Data reported in article PMC7953826 (Nature cell biology, 2020).

What was measured:
[1] = target: T1, hDyn1 (Homo sapiens, UniProt Q05193); assay: negative-stain EM, GTP-induced helix disassembly on actin bundles; assay type: binding; conditions: 1 mM GTP, with actin, room temperature, 30 min
T1 sequence (Q05193 1-864): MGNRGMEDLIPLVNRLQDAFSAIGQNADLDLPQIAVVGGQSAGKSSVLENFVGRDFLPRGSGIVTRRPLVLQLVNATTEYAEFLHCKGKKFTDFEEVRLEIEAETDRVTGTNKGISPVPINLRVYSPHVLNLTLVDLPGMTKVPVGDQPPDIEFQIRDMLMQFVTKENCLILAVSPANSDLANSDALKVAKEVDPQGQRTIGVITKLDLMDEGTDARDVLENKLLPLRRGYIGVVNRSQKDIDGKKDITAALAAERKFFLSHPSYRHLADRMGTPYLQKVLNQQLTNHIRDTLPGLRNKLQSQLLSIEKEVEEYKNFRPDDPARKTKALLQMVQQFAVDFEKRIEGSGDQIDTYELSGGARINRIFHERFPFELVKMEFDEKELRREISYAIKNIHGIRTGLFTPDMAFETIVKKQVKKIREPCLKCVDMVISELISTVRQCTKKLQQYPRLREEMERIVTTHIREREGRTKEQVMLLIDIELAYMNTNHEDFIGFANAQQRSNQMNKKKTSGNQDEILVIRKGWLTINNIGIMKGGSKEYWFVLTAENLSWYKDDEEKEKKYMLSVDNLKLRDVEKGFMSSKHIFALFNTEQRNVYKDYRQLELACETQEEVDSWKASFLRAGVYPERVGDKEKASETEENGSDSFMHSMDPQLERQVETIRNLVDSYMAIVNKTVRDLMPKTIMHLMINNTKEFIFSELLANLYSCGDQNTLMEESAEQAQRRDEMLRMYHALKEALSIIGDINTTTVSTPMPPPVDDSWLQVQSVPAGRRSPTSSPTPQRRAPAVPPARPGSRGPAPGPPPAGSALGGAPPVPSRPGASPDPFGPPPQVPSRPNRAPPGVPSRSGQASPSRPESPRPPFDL

[2] = target: T2, hDyn2 (Homo sapiens, UniProt P50570); assay: as above; assay type: binding; conditions: 1 mM GTP, with actin, room temperature, 30 min
T2 sequence (P50570 1-870): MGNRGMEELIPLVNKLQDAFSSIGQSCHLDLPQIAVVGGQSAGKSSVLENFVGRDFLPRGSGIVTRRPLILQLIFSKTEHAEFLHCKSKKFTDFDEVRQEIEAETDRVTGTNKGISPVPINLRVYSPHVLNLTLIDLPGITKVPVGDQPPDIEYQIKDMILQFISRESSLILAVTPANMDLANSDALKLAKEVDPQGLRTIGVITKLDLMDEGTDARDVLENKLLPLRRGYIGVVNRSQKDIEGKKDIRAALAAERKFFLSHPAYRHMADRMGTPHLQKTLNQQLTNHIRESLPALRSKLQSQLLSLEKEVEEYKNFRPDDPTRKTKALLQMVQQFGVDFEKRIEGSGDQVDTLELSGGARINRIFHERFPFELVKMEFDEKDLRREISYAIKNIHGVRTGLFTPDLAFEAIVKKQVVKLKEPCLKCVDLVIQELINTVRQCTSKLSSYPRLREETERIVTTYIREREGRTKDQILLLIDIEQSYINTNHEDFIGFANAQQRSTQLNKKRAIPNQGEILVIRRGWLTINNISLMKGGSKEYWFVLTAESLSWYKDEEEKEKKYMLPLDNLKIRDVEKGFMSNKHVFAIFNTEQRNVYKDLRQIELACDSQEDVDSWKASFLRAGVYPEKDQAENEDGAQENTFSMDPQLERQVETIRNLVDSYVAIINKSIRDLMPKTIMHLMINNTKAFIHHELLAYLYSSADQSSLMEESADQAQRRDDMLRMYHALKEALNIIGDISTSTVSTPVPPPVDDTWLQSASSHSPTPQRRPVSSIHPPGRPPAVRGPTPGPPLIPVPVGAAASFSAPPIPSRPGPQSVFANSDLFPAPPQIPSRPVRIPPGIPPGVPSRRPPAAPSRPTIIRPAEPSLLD

Which results are given for `Nc1nc2c(ncn2[C@@H]2O[C@H](COP(=O)(O)OP(=O)(O)OP(=O)(O)O)[C@@H](O)[C@H]2O)c(=O)[nH]1` [GTP]?
negative-stain EM, GTP-induced helix disassembly on actin bundles [1]: hDyn1 and hDyn2 helices along actin bundles were disassembled upon GTP addition; negative-stain EM, GTP-induced helix disassembly on actin bundles [2]: hDyn1 and hDyn2 helices along actin bundles were disassembled upon GTP addition
